We go through three sequences from publication PMC7063992, “Opossum Cathelicidins Exhibit Antimicrobial Activity Against a Broad Spectrum of Pathogens Including West Nile Virus” (Frontiers in Immunology, 2020).

No end group written: not given here.

One series has as its system MCF7. The series is described as follows: Mammalian cell cytotoxicity, WST-1. To be noted: 24 h, WST-1, triplicate. The format is cell-based, human. The procedure: (§1) Two mammalian cell lines, including human embryonic kidney cells (HEK293T) and human breast cancer cells (MCF7) were cultured in Dulbecco’s modified Eagle’s medium (DMEM; Hyclone^TM, Logan, UT, United States) supplemented with 10% FBS (Hyclone^TM) and 1% penicillin/streptomycin (Hyclone^TM) and incubated at 37°C and 5% CO2 up to 80% confluence. Cellular adherence to the substratum was disrupted using Accutase (Innovative Cell Technologies, San Diego, CA, United States). In total, 1 × 10^4 to 4 × 10^4 cells in each well of a 96-well plate containing 8, 16, 32, and 64 μg/mL of ModoCath peptides were incubated for 24 h at 37°C and 5% CO2. Additionally, HEK293T cells were incubated in the FBS-free medium. Triton X 100 (Sigma Aldrich) was used as a positive control for complete cell lysis, and untreated cells were used as the negative control. After incubation, the medium was removed from the wells, and 10 μL of coloring solution (Cell Proliferation Reagent WST-1^TM; Sigma Aldrich) and 100 μL of DMEM (Hyclone^TM) were added to the wells in accordance with the manufacturer’s protocol. Absorbance was measured for each well at 440 nm (peptide-treated and control) and 650 nm (background) and recorded as the OD, using a microplate reader (xMark^TM spectrophotometer; Bio-Rad). Cell viability was calculated using the following equation:
(§2) (1) CellViability(%)=100×(ODpeptide-ODbackground)/(ODnegative-ODbackground)
(§3) All experiments were performed in triplicate.

The test system of a further series is HEK293T. The series is described as follows: Mammalian cell cytotoxicity, WST-1. To be noted: 24 h, WST-1, triplicate. Format: cell-based, human. As for the experimental part: as §1, §2, §3
For orientation: Formazan colour is commonly taken as a measure of viable cells.

The test system of series [1] is Escherichia coli ATCC 25922. Briefly: microbe, parasite or virus in culture. To be noted: E. coli ATCC 25922. Format: cell-based. The procedure:
(§4) Peptides corresponding to the predicted antimicrobial regions of ModoCath1 (ΔModoCath1, N-VKRTKRGARRGL […]-C), ModoCath5 (ΔModoCath5, N-[…]-C), ModoCath6 (ΔModoCath6, N-[…]-C) and PMAP36 (N-[…] PLGCG-C) were synthesized via solid-phase peptide synthesis and purified via high-performance liquid chromatography using a commercial service (GenScript, Piscataway Township, NJ, United States). The MIC of synthesized peptides was determined against a panel of bacteria comprising 3 gram-positive strains, Staphylococcus aureus ATCC 6538 (ATCC, Manassas, VA, United States), Bacillus cereus ATCC 10876, and Enterococcus faecalis ATCC 29212, and 3 gram-negative strains, Escherichia coli ATCC 25922, Pseudomonas aeruginosa ATCC 27853, and Salmonella typhimurium ATCC 14028. Ampicillin (Sigma Aldrich, St. Louis, MO, United States) and gentamicin sulfate (Sigma Aldrich) were used as controls for antimicrobial activity. The MIC was determined using a colorimetric method specified by the Microbial Viability Assay Kit-WST (Dojindo, Kumamoto, Japan) in accordance with the manufacturer’s protocol and the Clinical and Laboratory Standards Institute (CLSI) guidelines (2018). Briefly, four colonies of each bacterium were inoculated into 5 mL Luria-Bertani (LB) broth medium at 37°C for 4 to 6 h. The cells were washed with sterile saline (0.9% NaCl) twice and seeded in a single well of a 96-well plate at the cell density of 10^5 CFU/well. Subsequently, 180 μL/well of fresh Mueller-Hinton broth (MHB) was added to the plate. Different concentrations of each peptide and reference antibiotics were serially diluted in 10 μL of MHB and added to each well. The plate was incubated at 37°C for 6 h. Cation-adjusted MH broth (CAMHB) was used to culture E. faecalis. Subsequently, 10 μL of the coloring reagent was added, and cells were incubated at 37°C for 2 h. UV absorbance was measured for each well at 450 nm, using a microplate spectrophotometer (xMark spectrophotometer; Bio-Rad, Hercules, CA, United States). MIC values were determined when the difference in the optical density (OD) between treatments and blanks (media and coloring reagent only) decreased to < 0.05. Experiments were conducted in triplicate. […] The pH conditions were achieved by using acetic acid (Sigma Aldrich).

Series [2] has as its system Pseudomonas aeruginosa ATCC 27853. Briefly: microbe, parasite or virus in culture. The format is cell-based. To be noted: P. aeruginosa ATCC 27853; MHB, 37°C 6 h + 2 h; triplicate. The procedure: as §4
Series [3] relates to Staphylococcus aureus ATCC 6538. Briefly: microbe, parasite or virus in culture. Format: cell-based. To be noted: S. aureus ATCC 6538; MHB, 37°C 6 h + 2 h; triplicate. The procedure:
as §4

Series [4] has as its system Salmonella typhimurium ATCC 14028. Briefly: microbe, parasite or virus in culture. The format is cell-based. To be noted: S. typhimurium ATCC 14028; MHB, 37°C 6 h + 2 h; triplicate. As for the experimental part:
as §4

Series [5] deals with Enterococcus faecalis ATCC 29212. The series is described as follows: microbe, parasite or virus in culture. The format is cell-based. To be noted: E. faecalis ATCC 29212; CAMHB, 37°C 6 h + 2 h; triplicate. As for the experimental part: as §4
The test system of series [6] is Bacillus cereus ATCC 10876. Briefly: microbe, parasite or virus in culture. The format is cell-based. To be noted: B. cereus ATCC 10876; MHB, 37°C 6 h + 2 h; triplicate. As for the experimental part:
as §4

Setting [7] is: Control: MHB at pH 7.5 without any additives, value in brackets.
[8] abbreviates: value in brackets, MHB, 37°C 6 h + 2 h, triplicate.

“VRRSKRGIKVPSFVKKVLKDVVSESIS [ΔModoCath6]”: the “Cell viability ± SD” value in the series with MCF7 (8 μg/mL) amounted to 89.2 ± 1.4%; with MCF7 (16 μg/mL), 93.2 ± 0.9%; in the series on MCF7 (32 μg/mL), 92.8 ± 1.0%; in the series with MCF7 (64 μg/mL) it was 95.2 ± 1.0%; with HEK293T (8 μg/mL, 37°C), 103.8 ± 5.0%; in the series on HEK293T (16 μg/mL), 95.6 ± 8.4%. Moreover, the entries for the “Cell viability ± SD” value in the series on HEK293T (32 μg/mL) and in the series with HEK293T (64 μg/mL) were 89.0 ± 13.1% and 88.8 ± 8.1%, respectively. Besides, the MIC is 5 (1.64) μg/mL in series [1] (MHB, 10^5 CFU/well, 37°C 6 h + 2 h with coloring reagent, OD 450 nm, triplicate); > 32(10.51) μg/mL in series [2]; > 32(10.51) μg/mL in series [3]; > 32(10.51) μg/mL in series [4]; > 32(10.51) μg/mL in series [5]; > 32(10.51) μg/mL in series [6].
Turning to “VKRTKRGARRGLTKVLKKIFGSIVKKAVSKGV [ΔModoCath1]”, the “Cell viability ± SD” value in the series with MCF7 (8 μg/mL) was determined as 91.2 ± 2.5%; in the series on MCF7 (16 μg/mL), 89.2 ± 0.6%; in the series on MCF7 (32 μg/mL) it was 79.1 ± 1.8%; in the series with MCF7 (64 μg/mL) it was 42.4 ± 2.1%; in the series with HEK293T (8 μg/mL, 37°C) it was 108.1 ± 9.9%; with HEK293T (16 μg/mL) it was 105.5 ± 6.9%. Also, the “Cell viability ± SD” value in the series on HEK293T (32 μg/mL) is 66.9 ± 5.0%; in the series on HEK293T (64 μg/mL), 55.7 ± 6.2%. In addition, the MIC was 0.14 µM in series [1] (1mM MgCl2, value in brackets); 0.29 µM in series [1] (2.5mM CaCl2, value in brackets); 0.14 µM in series [1] (4.5mM KCl, value in brackets); 0.14 µM in series [1] (150mM NaCl, value in brackets); 0.21 µM in series [1] (setting [7]); 0.21 µM in series [1] (pH 7, value in brackets). Besides, the MIC was 0.21 µM in series [1] (setting [8]); 2 (0.57) μg/mL in series [2]; 3 (0.85) μg/mL in series [3]; 2 (0.57) μg/mL in series [4]; 2 (0.57) μg/mL in series [5]; 30 (8.5) μg/mL in series [6].
As for “WYQLIRTFGNLIHQKYRKLLEAYRKLRD [ΔModoCath5]”, the “Cell viability ± SD” value with MCF7 (8 μg/mL) came out at 98.4 ± 4.2%; in the series with MCF7 (16 μg/mL) it was 84.6 ± 0.6%; in the series on MCF7 (32 μg/mL), 28.4 ± 0.7%; with MCF7 (64 μg/mL), 10.3 ± 2.8%; in the series with HEK293T (8 μg/mL, 37°C) it was 93.7 ± 8.3%; in the series on HEK293T (16 μg/mL), 67.4 ± 3.1%. The “Cell viability ± SD” value is given as 47.8 ± 2.7% in the series on HEK293T (32 μg/mL) and 35.0 ± 0.8% with HEK293T (64 μg/mL). For the same sequence, the MIC in series [1] (1mM MgCl2, value in brackets) is 2.48 µM; in series [1] (150mM NaCl, value in brackets), 2.07 µM; in series [1] (setting [7]), 1.38 µM; in series [1] (pH 6, value in brackets), 0.69 µM; in series [1] (pH 7, value in brackets), 1.38 µM; in series [1] (setting [8]), 1.38 µM. Also, the MIC in series [2] is listed as > 32(8.83) μg/mL; in series [3], 1.5 (0.41) μg/mL; in series [4] it was > 32(8.83) μg/mL; in series [5] it was 2 (0.55) μg/mL; in series [6], 6 (1.66) μg/mL.
